Source: patent publication US20240327364A1, “THERAPEUTIC TARGETING OF GPR68 TO INDUCE FERROPTOSIS” (University Of Maryland, Baltimore, priority 2023, published 2024)

Tests used:
TRPM6 = target: T1, TRPM6 (Homo sapiens, UniProt Q9BX84); experiment: KinomeScan; assay type: binding; details: read-out: % Control
T1 construct: purchased DiscoveRx (Fremont, CA)

STK36 = target: T2, STK36 (Homo sapiens, UniProt Q9NRP7); experiment: KinomeScan; assay type: binding; details: read-out: % Control
T2 construct: purchased DiscoveRx (Fremont, CA)

PYK2 = target: T3, PYK2 (Homo sapiens, UniProt Q14289); experiment: KinomeScan; assay type: binding; details: read-out: % Control
T3 construct: purchased DiscoveRx (Fremont, CA)

GPR99 = target: T4, GPR99 (Homo sapiens, UniProt Q96P68); experiment: GPCR Profiler; assay type: cell-based
T4 construct: host or cells: Chem-1 cells with promiscuous Gα15

PCTK2 = target: T5, PCTK2 (Homo sapiens, UniProt Q00537); experiment: KinomeScan; assay type: binding; details: read-out: % Control
T5 construct: purchased DiscoveRx

DRAK1 = target: T6, DRAK1 (Homo sapiens, UniProt Q9UEE5); experiment: KinomeScan; assay type: binding; details: read-out: % Control
T6 construct: purchased DiscoveRx (Fremont, CA), KinomeScan service
T6 sequence (Q9UEE5 whole entry): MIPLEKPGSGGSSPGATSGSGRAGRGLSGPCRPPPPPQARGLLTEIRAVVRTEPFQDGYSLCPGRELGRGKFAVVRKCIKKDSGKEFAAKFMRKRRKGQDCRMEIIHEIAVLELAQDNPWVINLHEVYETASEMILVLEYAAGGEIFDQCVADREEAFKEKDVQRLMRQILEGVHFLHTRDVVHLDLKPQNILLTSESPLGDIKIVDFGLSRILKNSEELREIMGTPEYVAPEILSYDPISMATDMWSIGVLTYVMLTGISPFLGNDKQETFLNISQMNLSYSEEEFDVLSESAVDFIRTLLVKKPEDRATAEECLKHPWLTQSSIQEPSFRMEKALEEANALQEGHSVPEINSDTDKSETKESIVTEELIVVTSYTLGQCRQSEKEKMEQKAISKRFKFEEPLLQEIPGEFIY

LPA5 = target: T7, LPA5 (Homo sapiens, UniProt Q9H1C0); experiment: GPCR Profiler; assay type: cell-based
T7 construct: host or cells: Chem-1 cells with promiscuous Gα15
T7 sequence (Q9H1C0 whole entry, species assumed): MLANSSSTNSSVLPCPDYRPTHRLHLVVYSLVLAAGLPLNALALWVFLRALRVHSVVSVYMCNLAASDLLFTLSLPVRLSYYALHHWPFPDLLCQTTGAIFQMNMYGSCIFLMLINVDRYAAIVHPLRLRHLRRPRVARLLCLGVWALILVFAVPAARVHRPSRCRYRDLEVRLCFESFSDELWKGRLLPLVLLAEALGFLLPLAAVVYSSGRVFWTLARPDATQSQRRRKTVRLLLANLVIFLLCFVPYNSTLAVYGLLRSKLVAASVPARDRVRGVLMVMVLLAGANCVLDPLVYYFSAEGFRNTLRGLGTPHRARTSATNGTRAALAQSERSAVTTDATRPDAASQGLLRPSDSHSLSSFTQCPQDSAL

RAF1 = target: T8, RAF1 (Homo sapiens, UniProt P04049); experiment: KinomeScan; assay type: binding; details: read-out: % Control
T8 construct: purchased DiscoveRx (Fremont, CA)

[1] = target: T9, RPS6KA4(Kin.Dom.2-C-terminal) (Homo sapiens, UniProt O75676); experiment: KinomeScan; assay type: binding; details: read-out: % Control
T9 construct: RPS6KA4(Kin.Dom.2-C-terminal); purchased DiscoveRx (Fremont, CA)
T9 sequence (O75676 411-674 limits assumed): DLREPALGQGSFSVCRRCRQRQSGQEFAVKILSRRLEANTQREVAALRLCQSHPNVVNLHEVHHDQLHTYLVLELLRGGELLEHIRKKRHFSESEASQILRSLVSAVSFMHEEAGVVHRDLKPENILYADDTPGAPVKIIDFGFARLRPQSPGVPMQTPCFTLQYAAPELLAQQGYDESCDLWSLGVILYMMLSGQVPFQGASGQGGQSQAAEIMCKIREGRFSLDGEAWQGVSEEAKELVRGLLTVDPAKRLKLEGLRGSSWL

CCR4 = target: T10, CCR4 (Homo sapiens, UniProt P51679); experiment: GPCR Profiler; assay type: cell-based
T10 construct: host or cells: Chem-1 cells with Gα15
T10 sequence (P51679 whole entry): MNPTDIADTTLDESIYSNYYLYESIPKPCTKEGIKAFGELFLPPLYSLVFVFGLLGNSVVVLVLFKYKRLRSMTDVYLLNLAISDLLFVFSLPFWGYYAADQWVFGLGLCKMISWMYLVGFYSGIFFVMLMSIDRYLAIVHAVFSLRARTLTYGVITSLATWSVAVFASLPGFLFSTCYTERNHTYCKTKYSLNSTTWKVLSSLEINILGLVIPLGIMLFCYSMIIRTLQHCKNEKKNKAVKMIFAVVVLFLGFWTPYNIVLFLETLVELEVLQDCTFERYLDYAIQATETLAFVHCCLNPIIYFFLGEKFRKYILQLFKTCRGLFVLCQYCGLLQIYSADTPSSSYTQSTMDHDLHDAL

SYK = target: T11, SYK (Homo sapiens, UniProt P43405); experiment: KinomeScan; assay type: binding; details: read-out: % Control
T11 construct: purchased DiscoveRx (Fremont, CA)

CCR3 = target: T12, CCR3 (Homo sapiens, UniProt P51677); experiment: GPCR Profiler; assay type: cell-based
T12 construct: host or cells: Chem-1 cells with Gα15
T12 sequence (P51677 whole entry, species assumed): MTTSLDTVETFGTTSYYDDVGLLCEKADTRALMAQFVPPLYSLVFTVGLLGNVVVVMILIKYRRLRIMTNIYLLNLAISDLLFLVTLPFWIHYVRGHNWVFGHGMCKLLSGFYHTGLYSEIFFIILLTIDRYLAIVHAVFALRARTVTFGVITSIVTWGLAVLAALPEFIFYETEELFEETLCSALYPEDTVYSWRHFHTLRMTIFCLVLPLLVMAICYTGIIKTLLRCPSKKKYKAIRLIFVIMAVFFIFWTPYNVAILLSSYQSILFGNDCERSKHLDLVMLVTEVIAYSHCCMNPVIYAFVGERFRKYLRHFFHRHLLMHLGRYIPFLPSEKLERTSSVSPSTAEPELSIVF

LOK = target: T13, LOK (Homo sapiens, UniProt O94804); experiment: KinomeScan; assay type: binding; details: read-out: % Control
T13 construct: purchased DiscoveRx
T13 sequence (O94804 whole entry): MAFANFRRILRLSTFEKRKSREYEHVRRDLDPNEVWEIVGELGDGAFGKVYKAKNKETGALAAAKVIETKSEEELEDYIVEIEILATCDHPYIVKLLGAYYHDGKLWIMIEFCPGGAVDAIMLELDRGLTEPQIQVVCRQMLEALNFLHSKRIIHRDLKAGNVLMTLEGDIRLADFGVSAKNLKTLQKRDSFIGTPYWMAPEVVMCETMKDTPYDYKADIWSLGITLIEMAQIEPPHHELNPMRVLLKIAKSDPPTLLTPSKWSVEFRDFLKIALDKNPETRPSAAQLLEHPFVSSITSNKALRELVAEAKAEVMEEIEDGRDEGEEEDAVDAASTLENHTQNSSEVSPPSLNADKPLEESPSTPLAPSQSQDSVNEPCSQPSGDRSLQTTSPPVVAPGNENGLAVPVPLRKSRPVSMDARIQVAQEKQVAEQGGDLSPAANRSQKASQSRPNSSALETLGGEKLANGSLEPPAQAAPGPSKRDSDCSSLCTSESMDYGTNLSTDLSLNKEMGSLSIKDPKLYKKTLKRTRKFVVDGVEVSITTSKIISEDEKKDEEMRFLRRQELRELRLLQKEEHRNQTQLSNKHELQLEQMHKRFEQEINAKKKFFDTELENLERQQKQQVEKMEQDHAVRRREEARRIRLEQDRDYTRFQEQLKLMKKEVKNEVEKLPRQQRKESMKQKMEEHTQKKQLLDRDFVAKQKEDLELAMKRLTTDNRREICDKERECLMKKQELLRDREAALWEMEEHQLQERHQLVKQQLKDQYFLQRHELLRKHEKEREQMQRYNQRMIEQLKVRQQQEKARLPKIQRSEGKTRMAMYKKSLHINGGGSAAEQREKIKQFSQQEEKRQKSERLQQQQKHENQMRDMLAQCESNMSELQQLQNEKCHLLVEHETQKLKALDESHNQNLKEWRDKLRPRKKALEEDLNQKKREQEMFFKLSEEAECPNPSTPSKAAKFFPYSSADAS

PIK3C2B = target: T14, PIK3C2B (Homo sapiens, UniProt O00750); experiment: KinomeScan; assay type: binding; details: read-out: % Control
T14 construct: purchased DiscoveRx (Fremont, CA)

K-562 = experiment: Cell Titer-Glo viability, Chronic myelogenous leukemia; assay type: cell-based
Protocol: OGM2 kills wide variety of cancer cell types. Cell sensitivity can be classified in to Very Sensitive (LC50<2 μM), Sensitive (LC50=2 to 10 μM), Mildly Sensitive (LC50>10 μM), and Refractory (no killing at 10 μM). The listed established cell were incubated with OGM2 at 2 μM or 10 μM for 72 hours under standard cell culture conditions, and relative cell number was assessed using Cell Titer-Glo Luminescent Cell Viability Assay (Promega™) following the manufacturer's instructions. Luminescence was determined using a Cytation 5 reader and Gen5 software package (BioTek™).
Cancer cells, which are very sensitive to killing by OGM2 (LCs <2 μM), with reported mRNA expression of GPR68 and the related proton sensing receptor GPR4. LC50's (concentrations causing 50% lethality) were determined using CellTiter-Glo (Promega™, G7570). Cells were plated in 12-well plates (CELLTREAT Scientific Products, 229112) in 1 ml of DMEM with high glucose, GlutaMAX, HEPES, or RPMI 1640 with Penicillin-Streptomycin (ThermoFisher™, 10564029, 11875119 and 15140122) and 10% FBS. Cells were incubated overnight at 37° C. in 5% CO2. Then 1 mL of fresh media was added with DMSO, OGM, or positive control (Erastin; APExBIO Technology, LLC, B1524) and cells incubated for 3 days. On the third day, all media was removed, cells were rinsed with 1×PBS, PBS was removed, and 200 μL of 1× Passive Lysis Buffer (Promega™, E1941) was added to each well. […]. Subsequently, 20 μL of lysate was added to 100 μL CellTiter-Glo™ reagent on a LUMITRAC 200 plate (Greiner™ bio-one, 82050-726). Plates were briefly spun down and read on a GloMax-Multi Detection System (Promega™).
The cells listed in the tables above were incubated with OGM2 at 2 μM or 10 μM for 72 hours under standard cell culture conditions, and relative cell number was assessed using Cell Titer-Glo Luminescent Cell Viability Assay (Promega™) following the manufacturer's instructions. Luminescence was determined using a Cytation 5 reader and Gen5 software package (BioTek™). RNA expression of GPR68 and GPR4 in the corresponding cancer cell lines are listed, according to the publicly available The Human Protein Atlas version 22.0 and Ensembl version 103.38 (see proteinatlas.org). The consensus normalized expression value (“nTPM”=normalize transcript per million) was calculated as the maximum nTPM value for each gene in the two data sources.

PANC02 = experiment: Clonogenicity (crystal violet); assay type: cell-based; details: 7 days
Protocol: In a third study, PANC02 pancreatic cells were plated at 400 cells per well in a 6-well plate and on the next day were treated with increasing concentrations of OGM2 for 7 days. The plate was fixed with formalin and stained with crystal violet.

HKSA-induced ALI = experiment: HKSA-induced acute lung injury; assay type: in vivo, C57Bl mice; details: OGM2 40 mg/kg
Protocol: FIG. 37A through FIG. 37D: OGM2 attenuates HKSA- and LPS-induced acute lung injury (ALI) in vivo. FIG. 37A: GPR68 mRNA is markedly elevated in lungs, heart and brain of HKSA-challenged (5×10^7/kg, i/n, 18 hr) C57Bl mice). FIG. 37B: LPS (0.7 mg/kg intratracheal) and […] ALI in mice markedly increases mRNA expression of GPR68, relative to GPR4, GPR65, and GPR132; *p<0.01 vs. vehicle; n=3.

U87 = experiment: Clonogenicity (crystal violet); assay type: cell-based, human; details: 12 days
Protocol: U87 cells were plated at 400 cells per well in a 6-well plate and on the next day were treated with increasing concentrations of OGM2 for 12 days. The doses were 0 uM (DMSO control) 0.1 μM 0.5 uM, 1 uM, 1.5 uM and 2 uM, as labelled. The plate was fixed with formalin and stained with crystal violet.

T1 sequence (Q9BX84 whole entry): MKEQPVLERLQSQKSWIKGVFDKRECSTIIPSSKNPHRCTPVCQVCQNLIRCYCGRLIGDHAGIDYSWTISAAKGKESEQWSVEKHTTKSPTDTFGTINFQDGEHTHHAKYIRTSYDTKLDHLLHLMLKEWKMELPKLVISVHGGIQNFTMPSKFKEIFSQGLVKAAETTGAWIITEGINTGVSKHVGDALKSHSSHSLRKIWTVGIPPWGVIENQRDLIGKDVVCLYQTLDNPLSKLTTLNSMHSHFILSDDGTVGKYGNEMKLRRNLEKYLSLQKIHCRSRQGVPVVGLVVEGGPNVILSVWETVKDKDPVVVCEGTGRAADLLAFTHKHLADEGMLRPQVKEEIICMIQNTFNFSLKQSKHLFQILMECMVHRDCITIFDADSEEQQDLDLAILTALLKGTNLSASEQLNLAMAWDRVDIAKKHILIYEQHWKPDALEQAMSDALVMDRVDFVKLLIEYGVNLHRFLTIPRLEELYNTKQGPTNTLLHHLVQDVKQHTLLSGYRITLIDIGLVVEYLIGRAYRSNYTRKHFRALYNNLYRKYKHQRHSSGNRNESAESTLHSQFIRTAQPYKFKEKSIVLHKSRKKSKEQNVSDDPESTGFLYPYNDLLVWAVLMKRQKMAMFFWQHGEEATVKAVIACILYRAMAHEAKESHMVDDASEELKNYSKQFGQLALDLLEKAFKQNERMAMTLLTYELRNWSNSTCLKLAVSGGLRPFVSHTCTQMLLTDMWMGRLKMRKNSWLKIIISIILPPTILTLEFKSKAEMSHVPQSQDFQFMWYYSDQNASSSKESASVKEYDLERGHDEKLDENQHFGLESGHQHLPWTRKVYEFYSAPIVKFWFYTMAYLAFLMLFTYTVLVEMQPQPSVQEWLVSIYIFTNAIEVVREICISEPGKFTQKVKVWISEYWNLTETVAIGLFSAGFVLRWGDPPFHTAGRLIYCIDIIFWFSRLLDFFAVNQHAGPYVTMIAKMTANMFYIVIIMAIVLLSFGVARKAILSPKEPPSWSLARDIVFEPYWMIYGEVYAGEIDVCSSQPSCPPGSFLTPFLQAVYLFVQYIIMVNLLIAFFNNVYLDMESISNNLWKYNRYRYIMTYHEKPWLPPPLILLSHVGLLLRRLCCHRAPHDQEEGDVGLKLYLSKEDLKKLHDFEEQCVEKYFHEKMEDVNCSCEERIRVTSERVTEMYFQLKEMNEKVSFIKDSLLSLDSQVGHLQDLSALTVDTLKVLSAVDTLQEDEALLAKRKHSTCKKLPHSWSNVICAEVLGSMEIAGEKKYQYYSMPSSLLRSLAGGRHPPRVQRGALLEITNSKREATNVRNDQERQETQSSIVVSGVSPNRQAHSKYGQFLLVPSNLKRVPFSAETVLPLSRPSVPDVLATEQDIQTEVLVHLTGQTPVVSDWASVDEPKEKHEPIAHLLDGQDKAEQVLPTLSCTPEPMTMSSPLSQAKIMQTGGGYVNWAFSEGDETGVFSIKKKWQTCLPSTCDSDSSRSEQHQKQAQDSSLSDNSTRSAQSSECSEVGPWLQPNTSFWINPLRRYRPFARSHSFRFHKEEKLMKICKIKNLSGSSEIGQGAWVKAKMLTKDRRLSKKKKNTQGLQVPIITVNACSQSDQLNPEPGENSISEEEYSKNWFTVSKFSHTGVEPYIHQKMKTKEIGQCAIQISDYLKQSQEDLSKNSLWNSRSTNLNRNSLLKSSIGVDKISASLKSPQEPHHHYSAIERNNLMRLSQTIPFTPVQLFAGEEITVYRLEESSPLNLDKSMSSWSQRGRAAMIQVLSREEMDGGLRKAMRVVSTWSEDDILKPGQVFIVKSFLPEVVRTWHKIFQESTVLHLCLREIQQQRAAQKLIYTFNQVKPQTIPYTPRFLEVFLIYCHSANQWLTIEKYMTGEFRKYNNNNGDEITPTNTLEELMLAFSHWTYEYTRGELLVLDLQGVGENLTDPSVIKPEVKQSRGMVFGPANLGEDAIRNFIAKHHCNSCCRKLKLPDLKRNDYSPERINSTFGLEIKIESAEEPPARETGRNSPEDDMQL

Structure (SMILES): CCc1ccc2c(c1)C1(NN=C(c3cccc4ccccc34)S1)C(=O)N2 (centres unmarked) [OGM1, 5-ethyl-5′-naphthalen-1-ylspiro[1H-indole-3,2′-3H-1,3,4-thiadiazole]-2-one]
- remaining binding at 10 µM (TRPM6): 80%
- remaining binding at 10 µM (STK36): 100%
- remaining binding at 10 µM (PYK2): 100%
- Antagonism (GPR99; 10 uM): 0.5
- Agonism (GPR99; 12.5 uM): 6.5
- remaining binding at 10 µM (PCTK2): 100%
- remaining binding at 10 µM (DRAK1): 100%
- Antagonism (LPA5; 10 uM): −16.2
- Agonism (LPA5; 12.5 uM): −0.1
- remaining binding at 10 µM (RAF1): 100%
- remaining binding at 10 µM [1]: 74%
- Antagonism (CCR4; 10 uM): −4.1
- Agonism (CCR4; 12.5 uM): −0.7
- remaining binding at 10 µM (SYK): 98%
- Antagonism (CCR3; 10 uM): −9.9
- Agonism (CCR3; 12.5 uM): 0.8
- remaining binding at 10 µM (LOK): 100%
- remaining binding at 10 µM (PIK3C2B): 95%

Structure (SMILES): CCc1ccc2c(c1)C1(NN=C(c3ccccc3)S1)C(=O)N2 (centres unmarked) [OGM2]
- Class (K-562): Sensitive (Sensitive (LC50=2 to 10 μM))
- % Survival 2 μM OGM (K-562; 72 hours): 56.7%
- % Survival 10 μM OGM (K-562; 72 hours): 37.0%
- CC50 (K-562; Homo sapiens, K562, 72 hours, read-out: LC50 (the source's name)): 2 to 10 µM
- clonogenicity (PANC02): reduced the clonogenicity of pancreatic cancer cells
- lung vascular leak (Evans blue-labeled albumin) (HKSA-induced ALI; 3 hr post administration): significantly attenuated
- inflammatory cytokine (TNFα, IL-6, KC, IL-1β) transcripts in the lungs (HKSA-induced ALI; i.p.): significantly attenuated induction
- clonogenicity (U87): reduces clonogenicity of U87 glioblastoma cells
